What follows are molecules tested against ROCK2 (Homo sapiens (Human), UniProt O75116) (assay: ROCK assay (peptide substrate phosphorylation, LABCHIP 3000 Reader)). Details: 5 μM ATP, 1.5 μM peptide substrate.
Assay type: biochemical
Experimental: Compounds were dissolved in DMSO so that the final concentration of DMSO was <2%, and the reaction was initiated with Rho kinase variants. After incubation, the reaction was terminated by the addition of EDTA and the phosphorylated and non-phosphorylated peptides separated using a LABCHIP® 3000 Reader (Caliper Life Sciences). […] Compounds were tested in dose-response format, and the inhibition of kinase activity was calculated at each concentration of compound.

Sequence of ROCK2 (O75116 whole entry, species assumed): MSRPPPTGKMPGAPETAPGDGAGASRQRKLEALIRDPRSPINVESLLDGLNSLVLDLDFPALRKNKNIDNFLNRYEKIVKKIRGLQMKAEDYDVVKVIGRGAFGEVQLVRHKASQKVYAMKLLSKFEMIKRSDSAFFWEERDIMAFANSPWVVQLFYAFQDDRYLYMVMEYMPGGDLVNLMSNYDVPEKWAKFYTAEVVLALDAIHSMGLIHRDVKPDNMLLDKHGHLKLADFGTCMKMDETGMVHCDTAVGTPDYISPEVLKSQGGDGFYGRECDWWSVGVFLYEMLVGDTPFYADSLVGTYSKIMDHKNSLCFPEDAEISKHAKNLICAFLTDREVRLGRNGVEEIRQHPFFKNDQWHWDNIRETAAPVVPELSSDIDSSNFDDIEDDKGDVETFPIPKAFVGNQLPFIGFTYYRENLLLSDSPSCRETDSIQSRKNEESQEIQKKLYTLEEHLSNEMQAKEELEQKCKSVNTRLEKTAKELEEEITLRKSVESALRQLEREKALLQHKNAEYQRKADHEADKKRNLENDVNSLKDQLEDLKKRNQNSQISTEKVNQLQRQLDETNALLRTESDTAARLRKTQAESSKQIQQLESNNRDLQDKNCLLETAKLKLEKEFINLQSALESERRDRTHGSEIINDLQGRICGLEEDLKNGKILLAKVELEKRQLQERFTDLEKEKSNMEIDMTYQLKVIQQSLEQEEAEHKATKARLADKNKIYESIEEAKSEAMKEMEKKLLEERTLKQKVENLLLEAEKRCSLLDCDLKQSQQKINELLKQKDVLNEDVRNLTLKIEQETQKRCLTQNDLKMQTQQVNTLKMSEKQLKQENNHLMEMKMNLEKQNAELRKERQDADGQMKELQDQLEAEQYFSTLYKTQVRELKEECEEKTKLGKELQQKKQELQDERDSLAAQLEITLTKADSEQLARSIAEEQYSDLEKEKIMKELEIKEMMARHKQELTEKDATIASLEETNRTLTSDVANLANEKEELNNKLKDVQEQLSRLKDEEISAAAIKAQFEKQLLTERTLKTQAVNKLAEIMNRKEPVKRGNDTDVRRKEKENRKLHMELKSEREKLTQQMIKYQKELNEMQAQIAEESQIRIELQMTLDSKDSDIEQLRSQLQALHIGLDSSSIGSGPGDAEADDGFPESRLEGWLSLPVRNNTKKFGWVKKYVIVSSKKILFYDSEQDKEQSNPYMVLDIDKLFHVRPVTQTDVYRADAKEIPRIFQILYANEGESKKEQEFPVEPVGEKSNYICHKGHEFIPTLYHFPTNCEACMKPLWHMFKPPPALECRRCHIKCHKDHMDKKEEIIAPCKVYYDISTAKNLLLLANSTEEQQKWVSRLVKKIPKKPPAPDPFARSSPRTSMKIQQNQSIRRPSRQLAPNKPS

| IC50 [µM] | SMILES |
| --- | --- |
| 0.00128 | COc1cc(C(=O)N[C@@H]2CNC[C@H]2c2ccccc2)ccc1-c1cn[nH]c1 (racemic) [Example 70, trans-(±)-3-Methoxy-N-(4-phenylpyrrolidin-3-yl)-4-(1H-pyrazol-4-yl)benzamide] |
| 0.355 | COc1cc(C(=O)N2CCC(c3ccccc3)C2)ccc1-c1cn[nH]c1 (centres unmarked) [Example 2, 4-[2-methoxy-4-(3-phenyl-pyrrolidine-1-carbonyl)phenyl]-1H-pyrazole] |
| 1.34 | COc1cc(C(=O)N2CCC[C@H]2CO)ccc1-c1cn[nH]c1 [Example 3, [(2S)-1-[3-methoxy-4-(1H-pyrazol-4-yl)benzoyl]pyrrolidin-2-yl]methanol] |
| 0.0318 | COc1cccc(C2CCCN2C(=O)c2ccc(-c3cn[nH]c3)c(OC)c2)c1 (centres unmarked) [Example 4, 4-{2-methoxy-4-[2-(3-methoxyphenyl)pyrrolidine-1-carbonyl]phenyl}-1H-pyrazole] |
| 0.0322 | COc1cc(C(=O)NC2CCc3ccccc32)ccc1-c1cn[nH]c1 (centres unmarked) [Example 5, N-(2,3-dihydro-1H-inden-1-yl)-3-methoxy-4-(1H-pyrazol-4-yl)benzamide] |
| 0.511 | COc1cc(C(=O)N2CCCC2c2ccccc2OC)ccc1-c1cn[nH]c1 (centres unmarked) [Example 6, 4-{2-methoxy-4-[2-(2-methoxyphenyl)pyrrolidine-1-carbonyl]phenyl}-1H-pyrazole] |
| 1.43 | COc1cc(C(=O)N2CCCC(c3ccccc3)C2)ccc1-c1cn[nH]c1 (centres unmarked) [Example 7, 1-[3-methoxy-4-(1H-pyrazol-4-yl)benzoyl]-3-phenylpiperidine] |
| 0.0858 | COc1cc(C(=O)N2CCCCC2c2ccccc2F)ccc1-c1cn[nH]c1 (centres unmarked) [Example 8, 2-(2-fluorophenyl)-1-[3-methoxy-4-(1H-pyrazol-4-yl)benzoyl] piperidine] |
| 0.673 | COc1cccc(C2CCCCN2C(=O)c2ccc(-c3cn[nH]c3)c(OC)c2)c1 (centres unmarked) [Example 9, 1-[3-methoxy-4-(1H-pyrazol-4-yl)benzoyl]-2-(3-methoxy-phenyl) piperidine] |
| 0.114 | COc1cc(C(=O)N2CCCC2c2ccc(Cl)cc2)ccc1-c1cn[nH]c1 (centres unmarked) [Example 10, 4-{4-[2-(4-chlorophenyl)pyrrolidine-1-carbonyl]-2-methoxyphenyl}-1H-pyrazole] |
| 1.63 | COc1cccc(C2CCCN2C(=O)c2ccc(-c3cn[nH]c3)c(OC)c2)c1 (centres unmarked) [Example 11, 4-{2-methoxy-4-[2-(3-methoxyphenyl)pyrrolidine-1-carbonyl]phenyl}-1H-pyrazole] |
| 0.0126 | COc1cccc(C2CCCN2C(=O)c2ccc(-c3cn[nH]c3)c(OC)c2)c1 (centres unmarked) [Example 12, 4-{2-methoxy-4-[2-(3-methoxyphenyl)pyrrolidine-1-carbonyl]phenyl}-1H-pyrazole] |
| 0.8 | COc1cc(C(=O)N2CCc3ccccc32)ccc1-c1cn[nH]c1 [Example 13, 1-[3-methoxy-4-(1H-pyrazol-4-yl)benzoyl]-2,3-dihydro-1H-indole] |
| 0.183 | COc1cc(C(=O)N2CCCC2Cc2ccccc2)ccc1-c1cn[nH]c1 (centres unmarked) [Example 14, 4-[4(2-benzyl-pyrrolidine-1-carbonyl)-2-methoxy-phenyl]-1H-pyrazole] |
| 0.031 | COc1cc(C(=O)N2CCCC2c2cccc(Br)c2)ccc1-c1cn[nH]c1 (centres unmarked) [Example 15, 4-{4-[2-(3-bromophenyl)pyrrolidine-1-carbonyl]-2-methoxyphenyl}-1H-pyrazole] |
| 0.00357 | COc1cc(C(=O)N2CCCC2c2cccc(S(N)(=O)=O)c2)ccc1-c1cn[nH]c1 (centres unmarked) [Example 16, 3-{1-[3-methoxy-4-(1H-pyrazol-4-yl)benzoyl]pyrrolidin-2-yl}benzene-1-sulfonamide] |
| 1.28 | COc1cc(C(=O)N2CCCC2c2cccc(S(N)(=O)=O)c2)ccc1-c1cn[nH]c1 (centres unmarked) [Example 17, 3-{1-[3-methoxy-4-(1H-pyrazol-4-yl)benzoyl]pyrrolidin-2-yl}benzene-1-sulfonamide] |
| 0.00279 | COc1cc(C(=O)N2CCCC2c2cccc(S(N)(=O)=O)c2)ccc1-c1cn[nH]c1 (centres unmarked) [Example 18, 3-{1-[3-methoxy-4-(1H-pyrazol-4-yl)benzoyl]pyrrolidin-2-yl} benzene-1-sulfonamide] |
| 0.0414 | COc1cc(C(=O)N2CCCC2c2ccc(F)cc2)ccc1-c1cn[nH]c1 (centres unmarked) [Example 19, 4-{4-[2-(4-fluorophenyl)pyrrolidine-1-carbonyl]-2-methoxyphenyl}-1H-pyrazole] |
| 0.0147 | COc1cc(C(=O)N2CCCC2c2ccccc2F)ccc1-c1cn[nH]c1 (centres unmarked) [Example 20, 4-{4-[2-(2-fluorophenyl)pyrrolidine-1-carbonyl]-2-methoxyphenyl}-1H-pyrazole] |

| IC50 [µM] | SMILES |
| --- | --- |
| 0.00274 | COc1cc(C(=O)N2CCCC2c2cccc(O)c2)ccc1-c1cn[nH]c1 (centres unmarked) [Example 21, 3-{1-[3-methoxy-4-(1H-pyrazol-4-yl)benzoyl]pyrrolidin-2-yl}phenol] |
| 0.125 | COc1cc(C(=O)N2CCCC2c2ccc(C(F)(F)F)cc2)ccc1-c1cn[nH]c1 (centres unmarked) [Example 22, 4-(2-methoxy-4-{2-[4-(trifluoromethyl)phenyl]pyrrolidine-1-carbonyl}phenyl)-1H-pyrazole] |
| 0.215 | COc1cc(C(=O)N2CCCC2c2ccc(C)cc2)ccc1-c1cn[nH]c1 (centres unmarked) [Example 23, 4-{2-methoxy-4-[2-(4-methyl-phenyl)pyrrolidine-1-carbonyl]phenyl}-1H-pyrazole] |
| 1.1 | COc1cc(C(=O)N2CCC[C@@H]2C(=O)OC(C)(C)C)ccc1-c1cn[nH]c1 [Example 24, tert-butyl (2R)-1-[3-methoxy-4-(1H-pyrazol-4-yl)benzoyl] pyrrolidine-2-carboxylate] |
| 0.331 | COc1ccc(C2CCCN2C(=O)c2ccc(-c3cn[nH]c3)c(OC)c2)cc1 (centres unmarked) [Example 25, 4-{2-methoxy-4-[2-(4-methoxyphenyl)pyrrolidine-1-carbonyl]phenyl}-1H-pyrazole] |
| 0.0505 | COc1cc(C(=O)N2CCCC2c2ccccc2)ccc1-c1cn[nH]c1 (centres unmarked) [Example 26, 4-[2-methoxy-4-(2-phenyl-pyrrolidine-1-carbonyl)phenyl]-1H-pyrazole] |
| 0.0614 | COc1cc(C(=O)N2CCCC2c2cccc(C)c2)ccc1-c1cn[nH]c1 (centres unmarked) [Example 27, 4-{2-methoxy-4-[2-(3-methyl-phenyl)pyrrolidine-1-carbonyl]phenyl}-1H-pyrazole] |
| 0.0158 | COc1cc(C(=O)N2CCCC2c2ccccc2Cl)ccc1-c1cn[nH]c1 (centres unmarked) [Example 28, 4-{4-[2-(2-chlorophenyl)pyrrolidine-1-carbonyl]-2-methoxyphenyl}-1H-pyrazole] |
| 0.0683 | COc1cc(C(=O)N2CCCC2c2ccc3ccccc3c2)ccc1-c1cn[nH]c1 (centres unmarked) [Example 29, 4-{2-methoxy-4-[2-(naphthalen-2-yl)pyrrolidine-1-carbonyl]phenyl}-1H-pyrazole] |
| 0.0753 | COc1cc(C(=O)N2CCCC2c2ccc3c(c2)OCO3)ccc1-c1cn[nH]c1 (centres unmarked) [Example 30, 4-{4-[2-(2H-1,3-benzodioxol-5-yl)pyrrolidine-1-carbonyl]-2-methoxyphenyl}-1H-pyrazole] |
| 0.0116 | COc1cc(C(=O)N2CCC[C@@H]2c2cccc(S(C)(=O)=O)c2)ccc1-c1cn[nH]c1 [Example 31, 4-{4-[(2R)-2-(3-Methanesulfonylphenyl)pyrrolidine-1-carbonyl]-2-methoxyphenyl}-1H-pyrazole] |
| 0.00583 | COC(=O)c1cccc([C@H]2CCCN2C(=O)c2ccc(-c3cn[nH]c3)c(OC)c2)c1 [Example 32, Methyl 3-[(2R)-1-[3-methoxy-4-(1H-pyrazol-4-yl)benzoyl]pyrrolidin-2-yl]benzoate] |
| 0.00452 | COc1cc(C(=O)N2CCC[C@@H]2c2cccc(C(=O)NCC(C)(C)O)c2)ccc1-c1cn[nH]c1 [Example 39, N-(2-hydroxy-2-methylpropyl)-3-[(2R)-1-[3-methoxy-4-(1H-pyrazol-4-yl)benzoyl]pyrrolidin-2-yl]benzamide] |
| 0.725 | COc1cc(C(=O)N2CCC[C@@H]2c2cccc(C(=O)N(C)C)c2)ccc1-c1cn[nH]c1 [Example 40, 3-[(2R)-1-[3-methoxy-4-(1H-pyrazol-4-yl)benzoyl]pyrrolidin-2-yl]-N,N-dimethylbenzamide] |
| 0.00553 | COc1cc(C(=O)N2CCC[C@@H]2c2cccc(C(=O)NC3CCS(=O)(=O)C3)c2)ccc1-c1cn[nH]c1 (stereo partly drawn) [Example 41, N-(1,1-dioxo-1λ^6-thiolan-3-yl)-3-[(2R)-1-[3-methoxy-4-(1H-pyrazol-4-yl)benzoyl]pyrrolidin-2-yl]benzamide] |
| 0.00459 | COc1cc(C(=O)N2CCC[C@@H]2c2cccc(C(=O)NC3CC3)c2)ccc1-c1cn[nH]c1 [Example 42, N-cyclopropyl-3-[(2R)-1-[3-methoxy-4-(1H-pyrazol-4-yl)benzoyl]pyrrolidin-2-yl]benzamide] |
| 0.0544 | COC(=O)c1cccc([C@H]2CC(OC(C)=O)CN2C(=O)c2ccc(-c3cn[nH]c3)c(OC)c2)c1 (stereo partly drawn) [Example 43, Methyl 3-[(2R)-4-(acetyloxy)-1-[3-methoxy-4-(1H-pyrazol-4-yl)benzoyl]pyrrolidin-2-yl]benzoate] |
| 0.0497 | COc1cc(C(=O)N2CC(O)C[C@@H]2c2cccc(C(=O)O)c2)ccc1-c1cn[nH]c1 (stereo partly drawn) [Example 44, 3-[(2R)-4-Hydroxy-1-[3-methoxy-4-(1H-pyrazol-4-yl)benzoyl]pyrrolidin-2-yl]benzoic acid] |
| 0.0182 | CNC(=O)c1cccc([C@H]2CC(O)CN2C(=O)c2ccc(-c3cn[nH]c3)c(OC)c2)c1 (stereo partly drawn) [Example 46, 3-[(2R)-4-hydroxy-1-[3-methoxy-4-(1H-pyrazol-4-yl)benzoyl]pyrrolidin-2-yl]-N-methylbenzamide] |
| 0.00729 | COc1cc(C(=O)N2CC(O)C[C@@H]2c2cccc(C(=O)NCC(C)(C)O)c2)ccc1-c1cn[nH]c1 (stereo partly drawn) [Example 47, 3-[(2R)-4-hydroxy-1-[3-methoxy-4-(1H-pyrazol-4-yl)benzoyl]pyrrolidin-2-yl]-N-(2-hydroxy-2-methylpropyl)benzamide] |

| SMILES | IC50 [µM] |
| --- | --- |
| CCNC(=O)c1cccc(C2CCCN2C(=O)c2ccc(-c3cn[nH]c3)c(OC)c2)c1 (centres unmarked) [Example 35, N-Ethyl-3-(1-(3-methoxy-4-(1H-pyrazol-4-yl)benzoyl)pyrrolidin-2-yl)benzamide] | 0.00489 |

— patent US10112939B2, “Tied-back benzamide derivatives as potent rock inhibitors” (Bristol-Myers Squibb Company, priority 2014, dated 2018)
